Results published in publication PMC9401491, “The Novel Nucleoside Analogue ProTide NUC-7738 Overcomes Cancer Resistance Mechanisms In Vitro and in a First-In-Human Phase I Clinical Trial” (Clinical Cancer Research, 2021).

Experiments:
[1] = tested on: human ccRCC tissue slices; assay: Ex vivo tissue slice culture of clear cell renal carcinoma; type: cell-based; conditions: 0, 5 and 25 μmol/L, 24 hours
From the text: A fresh sample of clear cell renal carcinoma (ccRCC) was placed in formalin to serve as a formalin control for our experiment. The sample was transported in precooled 199 medium (catalog no. 2154) supplemented with penicillin/streptomycin (1%), Normocin (0.2%), and Glutamax (2 mmol/L). The tissue sample was embedded in low-melting point agarose gel and sliced into 250-μm sections using a Vibratome VT1000S (Leica Biosystems). Tissue slices were put immediately into media (199 medium supplemented with 10% FBS, 2 mmol/L Glutamax, and 1% penicillin/streptomycin) containing different concentrations of NUC-7738 (0, 5, and 25 μmol/L) and incubated for 24 hours at 37°C. Treated tissue sections were then fixed using PFA for 1 hour at room temperature and stored in PBS at 4°C. The treated slices were later embedded in paraffin and subsequently sliced into 3-μm sections using a microtome. The sections were placed on slides and baked overnight at 40°C. Sections were dewaxed using xylene and rehydrated in a graded alcohol series followed by tap water. […]
Immunofluorescence staining was performed using BOND RX. NF-κB p65 (catalog no. 4764, CST) and cleaved caspase-3 (catalog no. 9661, CST) were detected with HRP-conjugated secondary antibody and visualized using tyramide-fluorophore conjugates (TSA Cy5 for both). […]

[2] = tested on: 786-O; assay: IC50 in renal cancer cell line 786-O; type: cell-based; conditions: Homo sapiens, 786-0
[3] = Beagle dog 4-week toxicology and toxicokinetics
[4] = tested on: HAP1 cells; assay: HAP1 viability with ADA, hENT1 or ADK inhibitors; type: cell-based, human; conditions: HAP1, EHNA, NBTI, A134974
Experimental: (§1) Cells (10^4) were seeded into 96-well plates and then treated with NUC-7738 (lot 5132/E00393/119) or 3′-dA (cordycepin, catalog no. C3394, lot 067M4182, Sigma) for 48 hours. One and a half milligrams per milliliter MTT (catalog no. M6494, Invitrogen) in a 1:1 ratio was added to cell culture media. After a 2-hour incubation at 37°C, media was removed and 70 μl of isopropanol was added. Optical densities at 570 nm were measured using POLARstar Omega plate reader. Readouts were normalized and IC50 values were calculated using a nonlinear regression model in Graphpad prism (v8.3.0). Each biological replicate (at least 3) was performed in 4 technical replicates to calculate the average IC50 value. To measure apoptosis, the Guava NexinReagent (Luminex Corp.) was used following manufacturer's instructions. Fluorescence staining was measured with an automated 96-well Guava easyCyte Flow Cytometer (Luminex Corp.).
To assess whether NUC-7738 was resistant to ADA and could bypass ADK and hENT1 (SLC29A1), cell viability was measured after treatment with their specific and corresponding protein inhibitors: erythro-9-(2-Hydroxy-3-nonyl) adenine hydrochloride (EHNA), A134974, and S-(4-nitrobenzyl)-6-thioinosine (NBTI), respectively ([16, 17, 34, 35]).

[5] = tested on: Tera-1; assay: MTT cell viability, Tera-1; type: cell-based
Experimental: as §1

[6] = tested on: ACHN; assay: MTT cell viability, ACHN; type: cell-based; conditions: Homo sapiens, 48 h
Experimental: as §1

[7] = design: method as in earlier work; conditions: patients, particularly immunotherapy-resistant melanoma; cited from earlier work
[8] = tested on: UM-RC-2; assay: IC50 in renal cancer cell line UM-RC-2; type: cell-based; conditions: UMRC2
[9] = tested on: renal cancer cell lines; assay: siRNA HINT1 knockdown in renal cancer cell lines; type: cell-based
Experimental: (§2) Cells were transfected with stealth siRNA (catalog no. HSS104782, catalog no. HSS104784, catalog no. HSS179235; ThermoFisher) targeting HINT-1 using Lipofectamine RNAiMAX (Invitrogen) following the manufacturer's protocol. At 48 hours posttransfection, cells were treated and cell viability was measured 96 hours posttransfection as described above. Samples for Western blot analysis were harvested 48 hours posttransfection. For gene-depletion experiments, approximately 4 × 10^5 HAP1 cells were seeded per well in a 6-well plate and grown to approximately 50% confluency. After 24 hours, cells were transfected with lentiCRISPR v2 plasmid (GenScript) containing a guide RNA (gRNA) targeting gene of interest using Turbofectin (catalog no. TF81001, OriGene) according to manufacturer's instruction. The following sequences were used: HINT-1 CRISPR gRNA 2 ([…]) and NUDT2 CRISPR gRNA 2 ([…]). At 24 hours posttransfection, positively transfected cells were selected using […] puromycin for 72 hours. After selection, surviving colonies were expanded and used for downstream analysis. For clonal selection, clones were selected using limited dilution and expanded into a 6-well plate for Western blot screening.

[10] = tested on: HINT1 KO HAP1 cells; assay: Sensitivity of HINT1 CRISPR/Cas9 knockout HAP1 cells; type: cell-based, human; conditions: HAP1 polyclonal and clonal HINT1 KO vs WT
Experimental: as §2
HAP1 cells were seeded at a density of 10,000 cells per well in 6-well plates and indicated drug concentrations were added. […]

C[C@H](NP(=O)(OC[C@@H]1C[C@@H](O)[C@H](n2cnc3c(N)ncnc32)O1)Oc1ccccc1)C(=O)OCc1ccccc1 (stereo partly drawn) [NUC-7738, 3′-deoxyadenosine-5′-O-phenyl-(benzyloxy-L-alaninyl)-phosphate]
nuclear p65 and tumor-cell apoptosis [1]: dose-dependent decrease in nuclear p65 and an increase in tumor-cell apoptosis | IC50 [2]: 13 µM | mean AUC(0-t) ([3]; 10 mg/kg/day, sex mean at day 26): 638 ng/h/mL | toxicology findings ([3]; 20 mg/kg/day, iv slow injection, 4 cycles): induced changes in the liver and bone marrow | systemic exposure (mean Cmax and AUC 0-t), single vs repeated administrations ([3]; all doses, significance >2-fold change): No significant differences | Tmax ([3]; both, beagle, plasma, iv): 15 min | clearance ([3]; both, beagle, plasma, iv): 245 to 533 mL/min/kg | half-life ([3]; both, beagle, plasma, iv): 13.2 to 27.6 min | Cmax ([3]; both, beagle, plasma, iv, 10 mg/kg/day): 1560 ng/mL | highest nonseverely toxic dose (HNSTD) ([3]; iv, 4 cycles (4 weeks)): 10 mg/kg/day | potency upon inhibition of ADA, hENT1 or ADK [4]: mostly unaffected | IC50 ([5]; 48 h): 4.36 µM | sensitivity to NUC-7738 compared with 3′-dA ([5]; Tera-1 teratocarcinoma): more than 40 fold | IC50 [6]: 54.7 µM | antitumor activity [7]: Encouraging signals of antitumor activity and prolonged disease stabilization | IC50 [8]: 4 µM | sensitivity after HINT1 depletion to minimal residual levels [9]: no difference in sensitivity | sensitivity after depletion of HINT1 [10]: markedly reduced sensitivity
